The record followed here is patent US20070037785A1, “Novel dipeptidyl peptidase IV inhibitors used for functionally influencing different cells and treating immunological, infammatory, neuronal, and other diseases” (priority 2003, published 2007).

The first experiment deals with dipeptidyl peptidase IV (Homo sapiens, UniProt P27487). In words: biochemical. The settings on record: values marked with "*" are ID50 values; read-out: IC50DPIV, values marked with "*" = ID50.
Sequence of dipeptidyl peptidase IV (P27487 whole entry, species assumed): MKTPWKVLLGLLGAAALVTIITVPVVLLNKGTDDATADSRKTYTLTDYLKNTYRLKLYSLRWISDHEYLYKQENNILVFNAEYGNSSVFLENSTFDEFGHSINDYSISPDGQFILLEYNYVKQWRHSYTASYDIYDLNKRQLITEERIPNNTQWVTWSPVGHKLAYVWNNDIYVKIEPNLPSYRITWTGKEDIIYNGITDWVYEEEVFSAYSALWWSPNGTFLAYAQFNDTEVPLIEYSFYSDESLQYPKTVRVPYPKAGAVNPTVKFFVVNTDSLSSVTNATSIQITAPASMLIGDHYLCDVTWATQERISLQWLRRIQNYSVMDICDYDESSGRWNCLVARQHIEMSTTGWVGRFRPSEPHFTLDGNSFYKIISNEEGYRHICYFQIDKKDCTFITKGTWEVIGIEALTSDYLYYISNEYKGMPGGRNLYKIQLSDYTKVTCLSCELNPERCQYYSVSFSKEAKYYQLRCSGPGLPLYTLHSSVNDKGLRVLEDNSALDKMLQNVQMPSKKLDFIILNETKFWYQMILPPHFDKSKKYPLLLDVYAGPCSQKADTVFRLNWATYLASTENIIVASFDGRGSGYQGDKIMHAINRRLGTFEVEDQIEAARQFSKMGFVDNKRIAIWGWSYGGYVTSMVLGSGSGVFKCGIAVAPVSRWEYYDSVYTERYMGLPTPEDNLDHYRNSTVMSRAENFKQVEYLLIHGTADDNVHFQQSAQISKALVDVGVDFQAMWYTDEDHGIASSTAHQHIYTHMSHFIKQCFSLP
Regarding `O=C(Cn1c2ccccc2c(=O)c2ccccc21)N/N=C/c1ccc(O)c(O)c1` [D10.092], the IC50 came out at 63.5 µM. Still for that read-out and setting: the value for `Cc1cccc(NCC(=O)N/N=C/c2cc(Br)c(O)c(O)c2Br)c1` [D10.094] was 65.5 µM.

For `CC(C)(C)c1cc2oc3c(c2c(/C=N/NC(=O)c2ccc(O)cc2O)c1O)CCCC3` [D10.097], the IC50 worked out at 74.7 µM. Still for that read-out and setting: the same measure for `COc1cc(/C=N/NC(=O)c2ccc(NC(=O)c3ccccc3C)cc2)cc(OC)c1OC` [D10.100]: 91 µM; for `O=C(CNC(=O)c1cccc(F)c1)N/N=C/c1cc(Br)cc(Br)c1OC(=O)c1cccc(Br)c1` [D10.102]: 91.9 µM. Still for that read-out and setting: the same measure for `Cc1ccc(OCC(=O)N/N=C/c2c(Br)cc(Br)c(O)c2Br)c(Br)c1` [D10.106]: 101 µM. As to `CCOc1cccc(/C=N\NC(=O)c2ccco2)c1O` [D10.107], the IC50 is 103 µM. Still for that read-out and setting: the same measure for `O=C(N/N=C/c1cc(Br)cc(Br)c1OC(=O)c1ccccc1)/C(=C/c1cccs1)NC(=O)c1ccccc1` [D10.110]: 114 µM. With `O=C(N/N=C/c1ccc(O)c(O)c1)c1cccc([N+](=O)[O-])c1` [D10.111], the IC50 is 116 µM. With `O=C(COc1ccccc1C(=O)N/N=C\c1ccc(O)c(O)c1)N/N=C/c1ccc(O)c(O)c1` [D10.113], the IC50 stood at 127 µM.

`CCn1c2ccccc2c2cc(/C=N/NC(=O)c3ccc([N+](=O)[O-])cc3)ccc21` [D10.116]: the IC50 is 165 µM.

For the compound `COc1ccc(/C=C(\NC(=O)c2ccccc2)C(=O)N/N=C/c2ccc(OC)c(COc3ccc(C(=O)OCC(C)C)cc3)c2)cc1` [D10.117], the IC50 worked out at 166 µM. Still for that read-out and setting: the same measure for `Cc1cc(Cl)ccc1OC(C)C(=O)N/N=C1/C(=O)Nc2ccc([N+](=O)[O-])cc21` (stereo not shown) [D10.118]: 166 µM; for `O=C(COc1c(O)cc(Br)cc1Br)N/N=C/c1ccc(O)c(O)c1` [D10.119]: 177 µM; for `COc1ccc(OCC(=O)N/N=C/c2ccc(OC)c(Br)c2)c(Br)c1` [D10.120]: 197 µM.

For the compound `O=C(CCCOc1ccc(Cl)cc1Cl)N/N=C1/C(=O)Nc2ccc(Br)cc21` [D10.121], the IC50 amounted to 204 µM. In the case of `C/C(=N\NC(=O)CNC(=O)c1ccc(Cl)cc1)c1ccc2ccccc2c1` [D10.122], the IC50 was determined as 208 µM.

With `CCOc1cc(/C=N/NC(=O)c2ccccc2)ccc1O` [D10.123], the IC50 was 218 µM. As to `CCCN(CCC)c1ccc(/C=N/NC(=O)COc2ccc(C)cc2[N+](=O)[O-])cc1` [D10.124], the IC50 amounted to 225 µM. With `Cc1ccc(C)c(NCC(=O)N/N=C\c2cc([N+](=O)[O-])ccc2N2CCOCC2)c1` [D10.125], the IC50 came to 233 µM.

As for `O=C(N/N=C/c1cccc([N+](=O)[O-])c1)c1ccc(NCc2ccccc2)cc1` [D10.126], the IC50 amounted to 234 µM.

`COc1cc(/C=N/NC(=O)c2ccccc2[N+](=O)[O-])cc(OC)c1OC` [D10.128]: the IC50 amounted to 241 µM. Still for that read-out and setting: the same measure for `COC(=O)c1ccc(/C=N/NC(=O)c2cc(C34CC5CC(CC(C5)C3)C4)n[nH]2)cc1` [D10.129]: 243 µM.

On to `O=C(N/N=C/c1ccccc1O)c1cc(-c2ccc3ccccc3c2)n[nH]1` [D10.130], for which the IC50 is 255 µM.

As to `Cc1ccc(OCC(=O)N/N=C/c2ccccc2OC(=O)c2ccc([N+](=O)[O-])cc2)cc1` [D10.131], the IC50 stood at 257 µM.

For the compound `CCOc1cc(/C=N/NC(=O)c2nnn(-c3nonc3N)c2-c2ccccc2)ccc1OC` [D10.132], the IC50 came to 271 µM. The same measure, in the same setting: the same measure for `O=C(N/N=C/c1cc(Br)ccc1OC(=O)c1ccc([N+](=O)[O-])cc1)/C(=C\c1ccc2c(c1)OCO2)NC(=O)c1ccccc1` [D10.133]: 272 µM. Take `COc1ccc(/C=N/NC(=O)C(=O)Nc2ccc(Cl)cc2C)c(OC)c1` [D10.134]: the IC50 amounted to 275 µM.

With `Nc1nonc1-n1nnc(C(=O)N/N=C/c2ccccc2Br)c1-c1ccc([N+](=O)[O-])cc1` [D10.135], the IC50 amounted to 314 µM. The same measure, in the same setting: the value for `Cc1cc(C(=O)N/N=C\c2c[nH]c3ccccc23)c(C)o1` [D10.136] was 340 µM. For `O=C(NNC(=O)c1ccc([N+](=O)[O-])cc1)c1ccc(N2C(=O)c3ccc(C(=O)NNC(=O)c4ccc([N+](=O)[O-])cc4)cc3C2=O)cc1` [D10.137], the IC50 was determined as 402 µM. Still for that read-out and setting: the value for `CCN(CC)c1ccc(/C=C(/NC(=O)c2ccccc2)C(=O)N/N=C/c2ccc(-c3ccc([N+](=O)[O-])cc3)o2)cc1` [D10.138] was 418 µM; that for `COc1ccc(S(=O)(=O)N(CC(=O)N/N=C/c2ccc(C(C)C)cc2)c2cc(Cl)ccc2OC)cc1OC` [D10.139] was 432 µM; that for `COc1cccc(/C=N/NC(=O)c2ccc(OCc3cccc(Br)c3)cc2)c1OC` [D10.140] was 458 µM. With `CSc1ccc(/C=N/NC(=O)c2cccs2)cc1` [D10.141], the IC50 stood at 498 µM. The same measure, in the same setting: the same measure for `N/C(=N/[N+](=O)[O-])N/N=C/c1ccc(-c2cccc(Cl)c2Cl)o1` [D10.142]: 609 µM.

As for `O=C(N/N=C/c1cccc(OC(=O)c2ccccc2Cl)c1)/C(=C\c1ccc2c(c1)OCO2)NC(=O)c1ccccc1` [D10.143], the IC50 is 656 µM.

As to `Cc1ccccc1NC(=O)C(=O)N/N=C/c1cccc(Cl)c1` [D10.144], the IC50 is 775 µM. The same measure, in the same setting: the value for `O=C(Nc1cccc(/N=C/c2cc(/N=N\c3ccccc3Cl)ccc2O)c1)c1ccco1` [D11.001] was 2.5 µM.

The experiment is the same for the next values; noted with them: values without "*" = IC-50; read-out: IC50DPIV.
As for `COc1ccc(Br)cc1/C=N/NC(=O)COc1ccc(C)cc1[N+](=O)[O-]` [D10.068], the IC50 turned out to be 45.6 µM. As for `O=C(N/N=C/c1cc([N+](=O)[O-])cc([N+](=O)[O-])c1O)/C(=C/c1ccc([N+](=O)[O-])cc1)NC(=O)c1ccccc1` [D10.069], the IC50 was 45.7 µM. Same read-out and setting: the value for `COc1cc(/C=N/NC(=O)/C(=C/c2ccc(N(C)C)cc2)NC(=O)c2ccccc2)cc(Br)c1O` [D10.070] was 46.2 µM; that for `Cc1cccc(C(=O)N/N=C/c2c(O)ccc3ccccc23)c1` [D10.072] was 46.7 µM. The same measure, in the same setting: the same measure for `O=C(Cn1c2ccccc2c(=O)c2ccccc21)N/N=C/c1cc(I)c(O)c([N+](=O)[O-])c1` [D10.073]: 52.3 µM; for `CC(C)(C)CC(C)(C)c1ccc(OCC(=O)N/N=C/c2ccc(OC(=O)c3ccco3)c([N+](=O)[O-])c2)cc1` [D10.074]: 52.9 µM; for `CCN(CC)C(=O)C1CCCN(c2ccc([N+](=O)[O-])cc2/C=N/NC(=O)c2cccc([N+](=O)[O-])c2)C1` (stereo not shown) [D10.075]: 54 µM. Consider `O=C(N/N=C/C=C/c1ccccc1)c1cc(C2CC2)n[nH]1` [D10.076], for which the IC50 was 55 µM. Still for that read-out and setting: the same measure for `Cc1ccc(Cn2cccc2/C=N/NC(=S)Nc2ccc(C)c(C)c2)cc1` [D10.077]: 55.2 µM; for `CCOc1cccc(/C=N/NC(=O)c2cc(-c3ccc(F)cc3)n[nH]2)c1O` [D10.078]: 55.3 µM; for `COc1c(O)ccc(/C=N/NC(=O)COc2c(Br)cc(Br)cc2Br)c1[N+](=O)[O-]` [D10.079]: 55.4 µM. Still for that read-out and setting: the value for `C/C(=N\NC(=O)c1cc(C(C)(C)C)n[nH]1)c1ccc(Cl)cc1` [D10.081] was 55.7 µM; that for `COc1cc(C(=O)Oc2c(Br)cc(Br)cc2/C=N/NC(=O)COc2ccc(C)cc2)cc(OC)c1OC` [D10.082] was 55.9 µM; that for `CCOc1ccc(/C=N/NC(=O)c2cc(-c3c(OC)ccc4ccccc34)n[nH]2)cc1` [D10.083] was 56.3 µM. Still for that read-out and setting: the same measure for `Cc1cccc(C)c1OCC(=O)N/N=C/c1cc(Br)cc(Br)c1OC(=O)c1ccccc1I` [D10.084]: 57 µM.

As for `Cc1ccc(/C=N/NC(=O)c2cccc(I)c2)o1` [D10.085], the IC50 worked out at 57.7 µM. On to `COc1ccc(C(=O)N/N=C/c2cc(O)c(O)c(Br)c2Br)cc1` [D10.086], for which the IC50 worked out at 57.8 µM.

Turning to `COc1cc(/C=N/NC(=O)c2ccccc2OC(C)C)ccc1O` [D10.087], the IC50 came out at 58.7 µM. On to `Cc1ccccc1SCC(=O)N/N=C/c1ccc(C)c([N+](=O)[O-])c1` [D10.088], for which the IC50 is 58.8 µM. Turning to `O=C(N/N=C/c1cc(Br)c(O)c(Br)c1O)/C(=C\c1ccc2c(c1)OCO2)NC(=O)c1ccccc1` [D10.089], the IC50 was 60 µM. Same read-out and setting: the same measure for `O=C(N/N=C\c1ccc(OCc2ccccc2Cl)cc1)c1ccc2c(c1)OCO2` [D10.090]: 62.1 µM; for `N#Cc1ccc(/C=N/NC(=O)c2ccccc2[N+](=O)[O-])cc1` [D10.091]: 62.2 µM; for `COc1cc(/C=N/NC(=O)CNC(=O)c2cccc(F)c2)ccc1OC(=O)c1ccccc1Cl` [D10.093]: 63.5 µM. The same measure, in the same setting: the value for `O=C(COc1ccc2ccccc2c1)N/N=C/c1c(Br)cc(Br)c(O)c1Br` [D10.095] was 69.6 µM; that for `N#Cc1ccc(/C=N/NC(=O)c2cc([N+](=O)[O-])ccc2O)cc1` [D10.098] was 81.4 µM.

Turning to `CCOc1cc(/C=N/NC(=O)c2cc(-c3ccco3)n[nH]2)ccc1O` [D10.099], the IC50 amounted to 84.9 µM.

For `COc1ccc(OCC(=O)N/N=C\C(C)=C/c2ccc(/C=C(C)\C=N/NC(=O)COc3ccc(OC)cc3Br)cc2)c(Br)c1` [D10.101], the IC50 amounted to 91.3 µM. The same measure, in the same setting: the value for `O=C(CNC(=O)C(c1ccccc1)c1ccccc1)N/N=C/c1ccc(OC(=O)c2cccc(F)c2)cc1` [D10.103] was 93.3 µM. Still for that read-out and setting: the same measure for `COc1ccc(OCC(=O)N/N=C/c2c(Br)cc(Br)c(O)c2Br)c(Br)c1` [D10.105]: 99.4 µM; for `COc1cccc(/C=N/NC(=O)c2cc(-c3cccc([N+](=O)[O-])c3)n[nH]2)c1O` [D10.108]: 110 µM. Still for that read-out and setting: the same measure for `COc1ccc(OCC(=O)N/N=C/c2c(Br)cc(Br)c(O)c2Br)cc1` [D10.109]: 113 µM; for `O=C(Nc1cccc(/N=C/c2cc(I)cc(I)c2O)c1)c1ccco1` [D11.002]: 9.2 µM; for `Cc1csc(/C(=N\OC(=O)c2ccc(Br)o2)C(N)=O)n1` [D11.003]: 14 µM. For the compound `C/C(=N/OC(=O)C(C)(C)C)c1cc2ccccc2oc1=O` [D11.004], the IC50 came to 14.1 µM. On the same count and under the same terms, the value for `CCCC(=O)O/N=C1/C(=O)N(c2ccccc2)c2ccccc21` [D11.006] was 15.2 µM; that for `CCCC(=O)O/N=C(/C)c1cc2ccccc2oc1=O` [D11.007] was 18.9 µM. The same measure, in the same setting: the same measure for `Cc1[nH]c2ccccc2c1/C=N/OC(=O)C1CC1` [D11.008]: 30 µM.
